In brackets after ≈: the same amount, converted by molar mass. Activity calls are given as the source filed them. The calls are words filed in the database; no cut-off is given here.
Tests used:
PBMC = test: Inhibition of IL-2 secretion from human PBMC cells stimulated with anti-CD3/CD28 measured after 24 hrs by bead-based FLISA; assay type: functional, cell-based
[1] = target: Protein kinase C theta type (Homo sapiens, UniProt Q04759); test: Inhibition of human recombinant full length His tagged PKC theta expressed in baculovirus using ERMRPRKRQGSVRRRV peptide as substrate incubated for 60 mins in presence of [33P] gammaATP by microbeta liquid scintillation counter
Sequence of Protein kinase C theta type (Q04759 whole entry): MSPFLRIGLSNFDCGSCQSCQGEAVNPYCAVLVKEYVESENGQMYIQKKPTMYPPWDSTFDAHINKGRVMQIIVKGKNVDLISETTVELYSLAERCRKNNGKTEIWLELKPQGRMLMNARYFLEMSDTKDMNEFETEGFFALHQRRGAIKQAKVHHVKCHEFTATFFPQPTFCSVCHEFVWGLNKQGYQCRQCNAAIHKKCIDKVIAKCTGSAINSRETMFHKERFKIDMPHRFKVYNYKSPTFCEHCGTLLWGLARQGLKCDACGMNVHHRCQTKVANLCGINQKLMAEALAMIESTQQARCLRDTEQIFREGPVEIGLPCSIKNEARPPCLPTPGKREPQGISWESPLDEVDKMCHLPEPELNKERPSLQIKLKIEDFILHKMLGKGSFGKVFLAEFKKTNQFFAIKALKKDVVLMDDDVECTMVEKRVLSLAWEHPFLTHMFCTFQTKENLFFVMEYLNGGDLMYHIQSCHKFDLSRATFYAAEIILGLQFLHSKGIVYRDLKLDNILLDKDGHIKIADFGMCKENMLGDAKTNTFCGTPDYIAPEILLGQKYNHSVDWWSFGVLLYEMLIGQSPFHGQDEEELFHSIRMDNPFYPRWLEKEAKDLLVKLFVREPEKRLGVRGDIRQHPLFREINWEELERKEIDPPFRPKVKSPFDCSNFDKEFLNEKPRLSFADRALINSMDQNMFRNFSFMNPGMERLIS

[2] = target: Protein kinase C delta type (Homo sapiens, UniProt Q05655); test: Inhibition of recombinant full length PKC delta (unknown origin) using ERMRPRKR- QGSVRRRV peptide as substrate measured after 15 mins in presence of ATP by spectrophotometric analysis
Sequence of Protein kinase C delta type (Q05655 whole entry): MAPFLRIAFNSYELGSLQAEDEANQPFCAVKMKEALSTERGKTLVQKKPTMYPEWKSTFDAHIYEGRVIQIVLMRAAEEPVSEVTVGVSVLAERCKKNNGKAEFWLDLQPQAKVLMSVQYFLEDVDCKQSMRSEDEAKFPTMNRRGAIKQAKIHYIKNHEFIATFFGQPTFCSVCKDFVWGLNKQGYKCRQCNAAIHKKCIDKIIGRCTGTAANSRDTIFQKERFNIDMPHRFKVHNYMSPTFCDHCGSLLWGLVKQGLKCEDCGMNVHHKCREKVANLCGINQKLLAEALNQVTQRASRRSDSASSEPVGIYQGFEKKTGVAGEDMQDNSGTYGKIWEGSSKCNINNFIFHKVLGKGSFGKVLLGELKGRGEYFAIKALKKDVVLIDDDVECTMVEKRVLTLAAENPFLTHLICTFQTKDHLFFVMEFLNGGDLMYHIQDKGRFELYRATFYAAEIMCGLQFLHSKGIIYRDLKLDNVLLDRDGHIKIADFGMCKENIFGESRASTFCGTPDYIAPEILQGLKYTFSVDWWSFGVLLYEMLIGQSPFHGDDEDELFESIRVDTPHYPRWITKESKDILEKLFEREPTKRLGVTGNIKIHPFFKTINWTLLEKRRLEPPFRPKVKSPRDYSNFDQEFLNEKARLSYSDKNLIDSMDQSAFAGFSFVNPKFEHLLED

[3] = Stability of compound in human liver microsomes assessed as compound remaining at 30 mins; assay type: ADME, Microsome; settings: read-out: Stability
[4] = Stability of compound in rat liver microsomes assessed as compound remaining at 30 mins; assay type: ADME, Microsome; settings: read-out: Stability
[5] = target: Voltage-gated inwardly rectifying potassium channel KCNH2 (Homo sapiens, UniProt Q12809); test: Inhibition of human ERG
Sequence of Voltage-gated inwardly rectifying potassium channel KCNH2 (Q12809 whole entry): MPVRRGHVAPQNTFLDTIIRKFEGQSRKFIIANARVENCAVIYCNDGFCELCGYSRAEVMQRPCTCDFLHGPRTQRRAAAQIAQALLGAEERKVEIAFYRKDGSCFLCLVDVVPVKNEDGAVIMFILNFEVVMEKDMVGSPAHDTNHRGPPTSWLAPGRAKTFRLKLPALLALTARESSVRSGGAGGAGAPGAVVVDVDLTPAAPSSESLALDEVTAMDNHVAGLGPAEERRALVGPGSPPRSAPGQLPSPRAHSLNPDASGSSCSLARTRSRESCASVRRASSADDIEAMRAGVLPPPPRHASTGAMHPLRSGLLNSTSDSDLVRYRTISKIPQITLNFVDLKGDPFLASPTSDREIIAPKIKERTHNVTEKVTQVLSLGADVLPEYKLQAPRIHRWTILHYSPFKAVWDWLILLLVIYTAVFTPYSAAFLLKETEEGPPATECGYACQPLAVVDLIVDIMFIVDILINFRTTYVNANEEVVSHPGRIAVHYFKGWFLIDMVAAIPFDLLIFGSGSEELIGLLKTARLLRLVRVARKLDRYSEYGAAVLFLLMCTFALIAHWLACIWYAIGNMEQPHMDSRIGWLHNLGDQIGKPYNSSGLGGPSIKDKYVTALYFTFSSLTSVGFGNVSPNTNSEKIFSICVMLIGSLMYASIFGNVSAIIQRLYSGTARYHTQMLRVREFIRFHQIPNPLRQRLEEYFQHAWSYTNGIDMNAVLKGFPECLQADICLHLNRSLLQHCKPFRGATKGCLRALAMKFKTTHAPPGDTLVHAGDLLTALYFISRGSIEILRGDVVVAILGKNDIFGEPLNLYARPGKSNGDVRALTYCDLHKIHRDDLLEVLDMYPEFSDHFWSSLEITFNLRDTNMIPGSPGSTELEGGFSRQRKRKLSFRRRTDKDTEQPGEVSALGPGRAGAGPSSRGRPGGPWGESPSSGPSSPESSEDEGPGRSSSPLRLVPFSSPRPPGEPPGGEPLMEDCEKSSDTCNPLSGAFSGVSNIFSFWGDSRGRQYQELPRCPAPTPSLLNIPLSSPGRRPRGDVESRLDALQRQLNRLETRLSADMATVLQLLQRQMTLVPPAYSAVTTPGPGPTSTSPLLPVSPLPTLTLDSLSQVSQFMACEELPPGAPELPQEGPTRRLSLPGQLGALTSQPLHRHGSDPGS

[6] = target: T1, Receptor-type tyrosine-protein kinase FLT3 (Homo sapiens, UniProt P36888); test: Inhibition of FLT3 (unknown origin) using polyE4Y peptide as substrate incubated for 60 mins in presence of [33P] gammaATP by microbeta liquid scintillation counter
T1 sequence (P36888 whole entry): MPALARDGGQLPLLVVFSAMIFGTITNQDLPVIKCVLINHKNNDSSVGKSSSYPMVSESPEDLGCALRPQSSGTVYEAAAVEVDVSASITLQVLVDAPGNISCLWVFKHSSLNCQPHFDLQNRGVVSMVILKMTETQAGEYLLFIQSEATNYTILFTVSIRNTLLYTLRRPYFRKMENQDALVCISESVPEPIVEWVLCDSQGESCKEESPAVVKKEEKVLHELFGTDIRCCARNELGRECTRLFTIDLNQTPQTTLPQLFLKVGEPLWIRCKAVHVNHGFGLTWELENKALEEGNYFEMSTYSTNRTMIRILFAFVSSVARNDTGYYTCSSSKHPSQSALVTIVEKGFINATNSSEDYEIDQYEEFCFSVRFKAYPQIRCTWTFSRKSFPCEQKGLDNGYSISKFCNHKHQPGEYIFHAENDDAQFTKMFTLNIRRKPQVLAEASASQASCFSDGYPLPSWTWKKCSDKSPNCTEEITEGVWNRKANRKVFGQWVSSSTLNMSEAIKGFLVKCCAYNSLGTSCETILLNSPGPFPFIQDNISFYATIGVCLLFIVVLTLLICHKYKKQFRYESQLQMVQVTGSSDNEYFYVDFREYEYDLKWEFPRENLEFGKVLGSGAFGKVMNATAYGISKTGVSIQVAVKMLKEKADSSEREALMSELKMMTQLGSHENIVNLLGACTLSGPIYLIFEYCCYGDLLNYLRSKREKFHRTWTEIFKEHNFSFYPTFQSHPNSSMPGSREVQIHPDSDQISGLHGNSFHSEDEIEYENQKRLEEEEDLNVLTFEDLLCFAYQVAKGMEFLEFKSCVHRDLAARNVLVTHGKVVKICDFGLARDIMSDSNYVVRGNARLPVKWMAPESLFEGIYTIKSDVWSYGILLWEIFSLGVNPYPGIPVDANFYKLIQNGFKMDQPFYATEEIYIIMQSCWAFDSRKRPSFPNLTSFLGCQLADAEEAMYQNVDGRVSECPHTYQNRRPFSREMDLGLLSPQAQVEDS

[7] = target: cAMP-dependent protein kinase catalytic subunit alpha (Homo sapiens, UniProt P17612); test: Inhibition of protein kinase A (unknown origin) using Kemptide (LRRASLG) as substrate incubated for 15 mins in presence of ATP by spectrophotometric analysis
HFL1 = test: Cytotoxicity against human HFL1 cells assessed as growth inhibition measured after 48 hrs by 3H-thymidine incorporation assay; assay type: cell-based
[8] = target: Protein kinase C alpha type (Homo sapiens, UniProt P17252); test: Inhibition of recombinant full length PKC alpha (unknown origin) using RRRRRKGSFKRKA peptide as substrate measured after 15 mins in presence of ATP by spectrophotometric analysis
[9] = target: Glycogen synthase kinase-3 beta (Homo sapiens, UniProt P49841); test: Inhibition of GSK-3beta (unknown origin) using HSSPHQS(PO3H2)EDEEE peptide as substrate measured after 15 mins in presence of ATP by spectrophotometric analysis
[10] = target: Tyrosine-protein kinase JAK2 (Homo sapiens, UniProt O60674); test: Inhibition of JAK2 (unknown origin) using polyE4Y peptide as substrate incubated for 60 mins in presence of [33P] gammaATP by microbeta liquid scintillation counter
[11] = Volume of distribution at steady state in iv dosed rat; assay type: ADME, organism-based; settings: in vivo, read-out: Vdss
[12] = target: Rho-associated protein kinase (Homo sapiens, UniProt O75116+Q13464); test: Inhibition of ROCK (unknown origin) using Myelin Basic Protein as substrate incubated for 60 mins in presence of [33P] gammaATP by microbeta liquid scintillation counter; assay type: protein assay
[13] = Unbound hepatic clearance in human hepatocytes assessed per million cells; assay type: ADME, cell-based, Hepatocyte
[14] = Lipophilicity, logD of compound; assay type: physicochemical; settings: octanol/water
[15] = Half-life in iv dosed rat; assay type: ADME, organism-based; settings: in vivo
[16] = target: T2, Tyrosine-protein kinase JAK3 (Homo sapiens, UniProt P52333); test: Inhibition of JAK3 (unknown origin)
T2 sequence (P52333 whole entry): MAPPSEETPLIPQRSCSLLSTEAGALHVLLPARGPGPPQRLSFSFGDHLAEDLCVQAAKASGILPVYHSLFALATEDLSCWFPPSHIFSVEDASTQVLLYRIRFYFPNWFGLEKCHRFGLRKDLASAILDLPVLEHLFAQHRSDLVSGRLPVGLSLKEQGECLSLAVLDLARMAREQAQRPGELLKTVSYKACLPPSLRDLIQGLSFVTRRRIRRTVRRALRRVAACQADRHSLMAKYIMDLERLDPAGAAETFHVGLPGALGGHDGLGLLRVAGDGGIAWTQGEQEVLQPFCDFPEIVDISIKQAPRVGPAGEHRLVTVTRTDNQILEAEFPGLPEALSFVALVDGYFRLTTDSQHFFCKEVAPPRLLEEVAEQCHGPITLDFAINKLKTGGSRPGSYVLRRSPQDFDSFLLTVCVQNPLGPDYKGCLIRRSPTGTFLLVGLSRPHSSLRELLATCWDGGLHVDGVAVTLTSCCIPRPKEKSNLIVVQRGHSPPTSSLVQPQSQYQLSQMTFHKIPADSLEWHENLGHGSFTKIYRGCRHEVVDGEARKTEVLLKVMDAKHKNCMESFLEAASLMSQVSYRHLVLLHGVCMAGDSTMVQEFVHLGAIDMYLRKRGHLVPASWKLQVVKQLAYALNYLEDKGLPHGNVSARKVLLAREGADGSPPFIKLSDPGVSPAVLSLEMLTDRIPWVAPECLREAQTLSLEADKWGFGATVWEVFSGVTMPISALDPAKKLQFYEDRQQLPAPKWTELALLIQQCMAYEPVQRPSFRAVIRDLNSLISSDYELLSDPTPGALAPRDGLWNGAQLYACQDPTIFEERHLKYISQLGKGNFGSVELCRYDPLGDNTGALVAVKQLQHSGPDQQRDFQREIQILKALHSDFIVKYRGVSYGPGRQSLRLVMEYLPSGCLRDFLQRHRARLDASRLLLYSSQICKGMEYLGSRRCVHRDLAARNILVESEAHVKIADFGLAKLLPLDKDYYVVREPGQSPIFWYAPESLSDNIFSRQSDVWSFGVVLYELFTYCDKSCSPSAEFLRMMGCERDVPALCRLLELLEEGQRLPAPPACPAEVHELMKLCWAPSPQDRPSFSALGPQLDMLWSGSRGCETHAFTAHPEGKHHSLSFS

[17] = Clearance in iv dosed rat; assay type: ADME, organism-based; settings: in vivo
[18] = Unbound hepatic clearance in rat hepatocytes assessed per million cells; assay type: ADME, cell-based, Hepatocyte
[19] = Dissociation constant, pKa of compound; assay type: physicochemical
[20] = Permeability across apical to basolateral side in human Caco2 cells measured at 120 mins by LC-MS/MS analysis; assay type: ADME, cell-based; settings: Caco-2, read-out: permeability
[21] = Clearance in iv dosed cynomolgus monkey; assay type: ADME, organism-based, Macaca fascicularis; settings: in vivo
[22] = Oral bioavailability in rat; assay type: ADME, organism-based; settings: in vivo
[23] = Half-life in iv dosed cynomolgus monkey; assay type: ADME, organism-based, Macaca fascicularis; settings: in vivo
[24] = Half-life in iv dosed dog; assay type: ADME, organism-based, Canis lupus familiaris; settings: in vivo
[25] = Clerance in iv dosed dog; assay type: ADME, organism-based, Canis lupus familiaris; settings: in vivo
[26] = Inhibition of CD3/CD28 stimulated IL-17 secretion from human Th17 cells measured after 24 hrs by ELISA
[27] = Unbound drug level in brain of BALB/c mouse at 50 mg/kg, po measured after 3 hrs; assay type: ADME, organism-based; settings: in vivo
Mus musculus [28] = test: Anti-inflammatory activity in C57BL/6 mouse model of MOG (35 to 55 residues)/pertussis toxin/complete Freund's adjuvant-induced autoimmune encephalomyelitis assessed as reduction in development of clinical symptoms at 50 mg/kg, po bid starting from day 8 post immunization upto 10 days; assay type: functional, organism-based
[29] = target: Protein kinase C beta type (Homo sapiens, UniProt P05771); test: Inhibition of human PKC beta
[30] = Thermodynamic solubility of compound in sodium phosphate buffer at pH 7.4; assay type: physicochemical; settings: read-out: Therm_solubility
[31] = Unbound drug level in brain of BALB/c mouse at 100 mg/kg, po measured after 3 hrs; assay type: ADME, organism-based; settings: in vivo
Mus musculus [32] = test: In vivo inhibition of Il-2 production in BALB/c mouse at 25 to 100 mg/lg, po measured after 3 hrs; assay type: functional, organism-based
[33] = Efflux ratio of permeability in human Caco2 cells by LC-MS/MS analysis; assay type: ADME, cell-based; settings: Caco-2
[34] = Oral bioavailability in mouse; assay type: ADME, organism-based; settings: in vivo
Cytochrome P450 2C9 [35] = target: T3, Cytochrome P450 2C9 (Homo sapiens, UniProt P11712); test: Inhibition of CYP2C9 (unknown origin) at > 30 uM; assay type: ADME
T3 sequence (P11712 whole entry): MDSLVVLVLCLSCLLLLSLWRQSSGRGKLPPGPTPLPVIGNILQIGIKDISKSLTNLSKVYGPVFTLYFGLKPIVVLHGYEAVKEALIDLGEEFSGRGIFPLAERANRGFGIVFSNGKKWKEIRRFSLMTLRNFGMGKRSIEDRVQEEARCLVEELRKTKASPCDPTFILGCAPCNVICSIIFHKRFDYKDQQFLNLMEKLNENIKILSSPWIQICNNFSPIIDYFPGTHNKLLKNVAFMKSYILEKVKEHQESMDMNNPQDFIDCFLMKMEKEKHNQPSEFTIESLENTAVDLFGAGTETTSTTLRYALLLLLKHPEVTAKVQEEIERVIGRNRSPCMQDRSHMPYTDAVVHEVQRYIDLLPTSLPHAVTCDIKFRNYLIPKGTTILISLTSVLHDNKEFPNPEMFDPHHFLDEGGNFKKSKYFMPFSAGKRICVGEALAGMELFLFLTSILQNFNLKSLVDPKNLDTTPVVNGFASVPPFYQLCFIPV

Cytochrome P450 2D6 [36] = target: T4, Cytochrome P450 2D6 (Homo sapiens, UniProt P10635); test: Inhibition of CYP2D6 (unknown origin) at > 30 uM; assay type: ADME
T4 sequence (P10635 whole entry): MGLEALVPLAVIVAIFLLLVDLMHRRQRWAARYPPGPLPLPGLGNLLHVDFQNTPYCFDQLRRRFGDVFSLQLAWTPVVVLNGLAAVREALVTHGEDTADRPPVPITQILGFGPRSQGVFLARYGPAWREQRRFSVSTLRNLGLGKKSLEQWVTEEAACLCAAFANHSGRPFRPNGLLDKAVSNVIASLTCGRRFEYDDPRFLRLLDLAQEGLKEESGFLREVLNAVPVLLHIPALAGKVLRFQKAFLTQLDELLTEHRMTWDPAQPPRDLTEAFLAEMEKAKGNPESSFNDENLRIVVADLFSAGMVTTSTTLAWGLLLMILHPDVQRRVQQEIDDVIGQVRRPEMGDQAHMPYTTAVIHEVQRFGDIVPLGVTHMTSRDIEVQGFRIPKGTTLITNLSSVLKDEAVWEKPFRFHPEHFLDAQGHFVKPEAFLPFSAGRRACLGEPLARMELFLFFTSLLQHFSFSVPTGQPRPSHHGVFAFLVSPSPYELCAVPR

Cytochrome P450 3A4 [37] = target: T5, Cytochrome P450 3A4 (Homo sapiens, UniProt P08684); test: Inhibition of CYP3A4 (unknown origin) at 22 uM; assay type: ADME
T5 sequence (P08684 whole entry): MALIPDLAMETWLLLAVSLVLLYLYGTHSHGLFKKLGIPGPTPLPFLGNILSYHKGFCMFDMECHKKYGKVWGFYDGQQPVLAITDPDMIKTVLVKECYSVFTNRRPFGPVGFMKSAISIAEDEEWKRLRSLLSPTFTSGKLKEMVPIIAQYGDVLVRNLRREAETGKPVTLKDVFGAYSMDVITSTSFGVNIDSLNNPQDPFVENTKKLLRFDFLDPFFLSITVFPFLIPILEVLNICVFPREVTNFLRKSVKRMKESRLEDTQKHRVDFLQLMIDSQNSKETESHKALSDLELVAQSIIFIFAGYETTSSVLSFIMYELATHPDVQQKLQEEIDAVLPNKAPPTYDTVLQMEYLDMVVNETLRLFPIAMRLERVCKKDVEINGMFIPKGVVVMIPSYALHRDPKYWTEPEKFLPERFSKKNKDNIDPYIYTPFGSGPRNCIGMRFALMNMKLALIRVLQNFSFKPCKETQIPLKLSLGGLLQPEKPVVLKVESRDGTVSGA

Cytochrome P450 2C9 [38] = target: T3, Cytochrome P450 2C9; test: Inhibition of CYP2C9 (unknown origin) at 4 uM; assay type: ADME
Cytochrome P450 3A4 [39] = target: T5, Cytochrome P450 3A4; test: Inhibition of CYP3A4 (unknown origin) at 16 uM; assay type: ADME
Cytochrome P450 2D6 [40] = target: T4, Cytochrome P450 2D6; test: Inhibition of CYP2D6 (unknown origin) at 8 uM; assay type: ADME

Compound	IC50 (PBMC)	Ki [1]	Ki [2]	remaining at 0.5 h [3]	remaining at 0.5 h [4]	IC50 [5]	Ki [6]	Ki [7]	IC50 (HFL1)	Ki [8]	logD [14]	half-life [15]	clearance [17]	pKa [19]	other results
NCC1(c2cccc(-c3ccnc4[nH]nc(C(F)(F)F)c34)c2)CCOCC1	130 nM	9 nM	184 nM	96%	65%	> 10000 nM	46 nM	30 nM	3300 nM	468 nM	–	–	–	–	–
CC(C)(C#N)c1cccc(-c2ccnc3[nH]ccc23)n1	–	3 nM	12 nM	–	–	–	100 nM	110 nM	–	110 nM	3.4	0.3 h	42 mL/min/kg	–	Ki [9]: 210 nM; Ki [10]: 13 nM; Vd [11]: 0.99 L/kg; Ki [12]: 6 nM; CL free [13]: 24 µL/min; Ki [16]: 3 nM; CL free [18]: 156 µL/min
NCC1(c2cccc(-c3ccnc4[nH]nc(C(F)(F)F)c34)c2)COC1	210 nM	6 nM	392 nM	100%	77%	> 10000 nM	–	–	> 10000 nM	1020 nM	1.7	1.2 h	62 mL/min/kg	7.6	Papp A→B at 2 h [20]: 19 ×10⁻⁶ cm/s; clearance [21]: 9 mL/min/kg; bioavailability [22]: 46%; half-life [23]: 5.1 h; half-life [24]: 6.2 h; clearance [25]: 12 mL/min/kg; IC50 [26]: 1000 nM; Drug uptake(free) [27]: 0.19 µM; Activity (Mus musculus [28]): Active; Ki [29]: 1700 nM; solubility thermodynamic [30]: 515 µM (≈ 179 µg/mL); Drug uptake(free) [31]: 0.4 µM; inhibition (Mus musculus [32]): Active; efflux ratio [33]: 2.4; bioavailability [34]: 67%
Cc1cc(-c2ccnc3[nH]nc(C(F)(F)F)c23)cc(C2(CN)COC2)c1	450 nM	8 nM	542 nM	86%	59%	> 10000 nM	–	–	2500 nM	286 nM	2.2	–	–	7.9	inhibition (INH) (Cytochrome P450 2C9 [35]): Active; inhibition (INH) (Cytochrome P450 2D6 [36]): Active; inhibition (INH) (Cytochrome P450 3A4 [37]): Active
Cc1cc(-c2ccnc3[nH]nc(C(F)(F)F)c23)cc(C2(CN)CCC2)c1	60 nM	3 nM	135 nM	81%	56%	700 nM	–	–	650 nM	60 nM	2.9	–	–	8.8	inhibition (INH) (Cytochrome P450 2C9 [38]): Active; inhibition (INH) (Cytochrome P450 3A4 [39]): Active; inhibition (INH) (Cytochrome P450 2D6 [40]): Active
